Measured values: US10383905B2, “Extract of Cynara ssp. and uses thereof” (ABOCA S.P.A. SOCIETA' AGRICOLA, priority 2013, dated 2019)

Columns and labels:
[1] = test system: confluent prostatic adenocarcinoma cell line DU-145; test: WST-1 cell vitality assay, confluent DU-145; format: cell-based, human
Procedure: (§1) Cytotoxicity was assayed using the WST assay (WSTs=water soluble tetrazolium salts), and utilises the ability of mitochondrial dehydrogenases to separate the tetrazole ring from the yellow-coloured WST molecule (tetrazolium salt) to give an orange formazan salt. The amount of formazan produced following the treatment of the cells with the substances being tested is measured using spectrophotometry and is proportional to the number of living cells. WST-1 and in particular WST-8 (2-(2-methoxy-4-nitrophenyl)-3-(4-nitrophenyl)-5-(2,4-disulfophenyl)-2H-tetrazolium) are advantageous with respect to MTT because they reduce outside the cells, in combination with PMS as electron mediator, to produce water-soluble formazan.
6.2 WST-1 assay on cell line DU145 at 24 and 48 hours with 0-100-200-300-400-500-600 μg/ml of extract of Cynara scolymus (cynaropicrin=1.361%), which inhibits, in a time-dependent and dose-dependent manner, the vitality of the DU-145 cells.
6.3 WST-1 assay on cell line DU145 at 24 and 48 hours with cynaropicrin 0-10-20-30-40-50-60 μM inhibits, in a dose-dependent and time-dependent manner, the vitality of DU-145 cells.

[2] = molecular target: T1, STAT3 (Homo sapiens, UniProt P40763); test: EMSA of STAT3 binding to DNA in KARPAS cells; format: cell-based; design: endogenous in cells; details: read-out: EC50 inhibition of the ability of STAT3 to bind to DNA
T1 sequence (P40763 whole entry): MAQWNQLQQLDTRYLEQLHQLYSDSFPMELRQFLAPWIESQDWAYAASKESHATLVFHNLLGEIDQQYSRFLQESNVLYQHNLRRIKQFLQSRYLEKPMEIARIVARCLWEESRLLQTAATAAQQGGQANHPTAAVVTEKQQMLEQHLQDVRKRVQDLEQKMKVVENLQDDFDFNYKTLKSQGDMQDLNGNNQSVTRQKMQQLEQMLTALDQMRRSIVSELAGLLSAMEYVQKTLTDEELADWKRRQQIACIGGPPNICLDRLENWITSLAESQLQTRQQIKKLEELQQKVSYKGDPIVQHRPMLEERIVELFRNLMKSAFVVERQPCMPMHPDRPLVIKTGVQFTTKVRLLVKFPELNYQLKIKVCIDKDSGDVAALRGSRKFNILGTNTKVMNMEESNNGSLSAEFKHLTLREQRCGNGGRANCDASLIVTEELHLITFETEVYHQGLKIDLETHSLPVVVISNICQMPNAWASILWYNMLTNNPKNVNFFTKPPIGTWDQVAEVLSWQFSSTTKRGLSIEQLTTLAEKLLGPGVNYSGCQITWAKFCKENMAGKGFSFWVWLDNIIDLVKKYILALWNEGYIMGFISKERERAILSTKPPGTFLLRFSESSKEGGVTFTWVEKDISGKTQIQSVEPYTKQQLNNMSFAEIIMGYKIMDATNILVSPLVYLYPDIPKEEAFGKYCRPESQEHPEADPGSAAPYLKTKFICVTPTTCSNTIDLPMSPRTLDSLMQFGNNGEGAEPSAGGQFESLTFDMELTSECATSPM

[3] = test system: STAT3; test: STAT3 phosphorylation after pre-treatment with glutathione ethylene ester; format: cell-based
[4] = molecular target: T1, STAT3; test: Western Blot of STAT3 phosphorylation in KARPAS cells; format: cell-based; design: The cell line DU145 expresses pStat3 in a constitutive manner; endogenous in cells; host or cells: DU-145 (human prostate carcinoma, ATCC HTB-81); details: read-out: EC50 inhibition of the phosphorylation of STAT3
Procedure: (§2) The cells were lysed in ice for 30 min in lysis buffer NP40 (50 mM Tris-HCl pH 7.4, 150 mM NaCl, 1% NP-40, 1 mM EGTA, 1 mM EDTA) complemented with inhibitors of protease and phosphatase (5 mM PMSF, 3 mM NaF, 1 mM DTT, 1 mM NaVO4). Equal amounts of total extracts of protein (30 μg) were broken down by means of denaturing electrophoresis (SDS-PAGE) in 8% polyacrylamide gel and transferred for 2 hours on nitrocellulose membrane. The membranes were blocked with a 5% solution of milk dissolved in TBS-Tween_20 0.05% for 1 hour and incubated with the specific primary antibodies. The following primary antibodies were used: anti-beta actin (A-2228, SIGMA), anti-pSTAT3 (Tyr-705) (sc8059, Santa Cruz) and anti-STAT3 (sc7179, Santa Cruz). The secondary antibodies were peroxidase-conjugated (Santa Cruz), and ECL reagents (Amersham, GE Healthcare. Piscataway, N.J., USA) were used for the chemiluminescence.
(§3) 2. The Extract of Cynara scolymus and Cynaropicrin Inhibit the Activation of STAT3 in DU-145 Cells and in KARPAS Cells:
(§4) 200 μg/ml of extract that contains 0.181% of cynaropricrin contain 1.2 μM of cynaropricrin.

[5] = molecular target: T1, STAT3; test: Western Blot of STAT3 phosphorylation in DU-145 cells; format: cell-based; design: The cell line DU145 expresses pStat3 in a constitutive manner; endogenous in cells; host or cells: DU-145 (human prostate carcinoma, ATCC HTB-81); details: read-out: EC50 inhibition of the phosphorylation of STAT3
Procedure: as §2, §3, §4

[6] = test system: GSH; test: Intracellular analyses of GSH; format: cell-based; details: 12.5, 25, 50 μM
Procedure: The intracellular concentration of GSH was evaluated by means of a colorimetric method. The cell extract, deproteinised by means of 10% trichloroacetic acid, was treated with dithio nitrobenzene (DTNB), and the quantity of TNB, which is released following the reaction with GSH, was evaluated by analysing the absorbance at 412 nm.

[7] = test system: STAT3; test: Glutathionylation of STAT3; format: cell-based; details: 12 microM and 25 μM
Procedure: STAT3 was immunoprecipitated by incubating the protein cell extract overnight with an anti-STAT3 antibody. The proteins obtained were separated by means of SDS-PAGE in non-reducing conditions and were transferred on PVDF membrane. The glutathionylated STAT3 was recognised using an anti-GSH antibody.

[8] = molecular target: T1, STAT3; test: EMSA of STAT3 binding to DNA in DU-145 cells; format: cell-based; design: The cell line DU145 expresses pStat3 in a constitutive manner; endogenous in cells; host or cells: DU-145 (human prostate carcinoma, ATCC HTB-81); details: read-out: EC50 inhibition of the ability of STAT3 to bind to DNA
[9] = test system: human prostate tumour cell line DU145; test: WST-1 vitality assay in association with chemotherapeutic agents; format: cell-based
Procedure: as §1
The assays were carried out in parallel with variable doses of cynaropicrin in place of the extract to compare the efficacy of the extract and that of cynaropicrin.

[10] = test system: MSTO211H and NCI-H2052; test: ATPlite vitality assay, extract in association with pemetrexed, MPM lines; format: cell-based, human; details: MPM cells, 72 h
Procedure: Cell lines MSTO211H and NCI-H2052 were used to evaluate the effects of the association of extract of Cynara scolymus+anti-tumour drug.
(§5) The assay shown in FIG. 10 was performed using ATPlite™ assay (Perkin Elmer) in accordance with the producer's instructions.
(§6) A solution of water for injectable solutions and ethanol at a concentration of 1:1 was used in the same volumes used for the treatments.
(§7) pemetrexed (Alimta, Lilly) diluted in accordance with the producer's instructions.
(§8) The concentrations of the assayed compound are plotted on the abscissa, whereas the cell vitality expressed in percentage is plotted on the ordinate.

[11] = test system: untransformed HMC cells; test: ATPlite vitality assay, extract in association with pemetrexed, HMC; format: cell-based, human; details: non-tumour HMC cells
Procedure: as §5, §6, §7, §8

Row | SMILES | reduction of vitality ([1]; confluent DU-145, 50 μM for 48 hours) | cell vitality ([1]; confluent DU-145, cynaropicrin 0-70 μM, 24 or 48 hours) | EC50 [2] | effect of restoration of GSH on inhibition of STAT3 phosphorylation [3] | EC50 [4] | EC50 [5] | intracellular concentration of GSH [6] | glutathionylation of STAT3 [7] | EC50 [8] | molarity of cynaropicrin needed to reduce cell vitality below 20%, relative to that present in the artichoke extract ([9]; DU145, with cisplatinum 15 μg/ml) | molarity of cynaropicrin needed to reduce cell vitality below 20%, relative to that present in the artichoke extract ([9]; DU145, with doxorubicin 2 μg/ml) | cell vitality, pemetrexed alone [10] | cell vitality, pemetrexed alone [11]
1 | C=C(CO)C(=O)O[C@H]1CC(=C)[C@@H]2C[C@H](O)C(=C)[C@@H]2[C@H]2OC(=O)C(=C)[C@@H]21 [cynaropicrin] | approximately 90% | inhibits cell vitality in a time-dependent and dose-dependent manner | 25 µM | reverses the ability of cynaropicrin to inhibit the phosphorylation of STAT3 | 25 µM | 25 µM | time-dependent and dose-dependent reduction of the intracellular concentration of GSH | determines the glutathionylation of STAT3 | 25 µM | forty times greater | approximately twenty-five times greater | – | –
2 | Nc1nc2[nH]cc(CCc3ccc(C(=O)N[C@@H](CCC(=O)O)C(=O)O)cc3)c2c(=O)[nH]1 [PMTX, pemetrexed] | – | – | – | – | – | – | – | – | – | – | – | cytotoxic for the MPM cells | highly toxic for the non-tumour cells
